“Also recorded” adds a separate entry of the source.
Key:
human AFP = biological target: T1, human AFP (Homo sapiens, UniProt P02771); experiment: Competitive substitution of [3H]arachidonic acid from the AFP binding site (Scatchard)
T1 construct: from tissue; host or cells: human cord blood
Experimental: To determine N-AAP affinity to human AFP a competitive substitution of [5, 6, 8, 9, 11, 12, 14, 15-^3H] arachidonic from the protein's binding site was used. To tubes containing 0.05 nM AFP in 1 ml 0.1 M bicarbonate buffer and 0.7 nM [3H] arachidonic acid and the increasing amounts of arachidonic acid or N-AAP (5-5000 nM) were added. The tubes were incubated for 2 hr at room temperature. To separate protein-bound and free fractions of [3H] arachidonic acid 0.5 ml of 0.5% suspension of activated carbon was added to each tube and incubated at 4° C. for 30 min. The carbon was sedimented by centrifugation at 3000 g, aliquots were added to 10 ml scintillating mixture and the vials were measured in beta-counter.
The binding parameters of arachidonic acid and N-AAP and the number of binding sites per protein molecule were calculated according to Scatchard (Scatchard O., Ann. N.Y. Acad. Sci. 51., p 660-664, 1949).

[1] = system: antibody-forming cells (AFC) in the spleen of mice immunized with sheep erythrocytes; experiment: Humoral immune response: count of antibody-forming cells (AFC) in the spleen according to Cunningham; assay type: in vivo, mouse; conditions: for relative amount of AFC / total AFC amount: CBA mice, i.v., sheep erythrocytes i.p.; for immunogenic / immunostimulating activity, effect on humoral immune response (in words): mice immunized with sheep erythrocytes
Experimental: The influence of AFPIN-AAP complexes as well as their basic components on humoral immune response was estimated by counting the quantity of antibody-forming cells (AFC) in the spleen.
AFP was administered intravenously to 10 mouse males of CBA line (weight 18-22 g) in a dose of 0.009 mg per capita. Simultaneously 5% sheep erythrocytes suspension was injected peritoneally (0.2 ml per capita) to both control and experimental animals. The control animals were also injected with the equal volume of NaCl isotonic solution intravenously.
The effect of AFP on humoral immune response was analyzed by counting the quantity of AFC in the spleen according to Cunningham (Cunningham A. J., Nature, v.207, p. 1106-1107, 1965) (per 10^6 spleen cells and per spleen).
N-AAP was administered intravenously to 10 mouse males of CBA line (weight 18-22 g) in a dose of 0.09 mg per capita Simultaneously 5% sheep erythrocytes suspension was injected peritoneally (0.2 ml per capita). Control series were injected with 0.15 ml NaCl isotonic solution intravenously. The effect of N-AAP on humoral immune response was analysed by counting the quantity of AFC in the spleen according to Cunningham (per 10^6 spleen cells and per spleen).
(§1) 0.15 ml AFP/N-AAP complex was administered intravenously to 10 mouse males of CBA line (weight 18-22 g) in a dose of 0.009 mg AFP and 0.09 mg N-AAP per capita. Simultaneously 5% sheep erythrocytes suspension was injected peritoneally (0.2 ml per capita). Control series were intravenously injected with equal volumes of NaCl isotonic solution. The effect of the AFP/N-AAP complex on humoral immune response was analyzed by counting the quantity of AFC in the spleen according to Cunningham (per 10^6 spleen cells and per spleen).
as §1, with “0.045” for “0.09”
as §1, with “0.135” for “0.09”, “capita)” for “capita).”
In order to determine the effect of the inventive complex, 0.15 ml AFP/N-AAP complex was administered intravenously to 10 mouse males of CBA line (weight 18-22 g) in the dose of 0.009 mg rat AFP and 0.09 mg N-AAP per capita. Simultaneously 5% sheep erythrocytes suspension was injected peritoneally (0.2 ml per capita). Control series were injected intravenously with equal volumes of isotonic NaCl solution. The effect of rat AFP/N-AAP complex on humoral immune response was analyzed by counting the quantity of AFC in the spleen according to Cunningham (per 10^6 spleen cells and per spleen).

random breed male mice = experiment: Acute toxicity, single intravenous injection, method of Litchfield and Wilcoxon; assay type: in vivo, mouse
Experimental: The toxicity of N-AAP was studied in random breed male mice (19-24 g). A water solution of N-AAP was injected once slowly in the tail vein of mice in a range of doses 40-70 mg/kg. Each group of mice included 6 animals, at least The assessment of acute toxicity was carried out according to the method of Litchfield et al. (Litchfield J. T., Wilcoxon F., J. Pharmacol. Exptl. Therap., Vol.96, P. 99-103, 1949).

[2] = mice, single i.v. injection in tail vein

Molecule: CCCCC/C=C\C/C=C\C/C=C\C/C=C\CCCC(=O)O [arachidonic acid, reference compound]
- n (number of binding sites per protein molecule) (human AFP; three independent determinations, Scatchard): > 1.2

Molecule: CCCCC/C=C\C/C=C\C/C=C\C/C=C\CCCC(=O)NCCOP(=O)(O)O [N-AAP, N-arachidonoyl aminoethylphosphate]
- Ki (human AFP): 333 nM
- relative amount of AFC in comparison with control (in words) ([1]; 5-th day after injection): not significantly changed
- relative amount of AFC ([1]; 5-th day after injection): 342.2±28.5 per 10^6 cells
- total AFC amount ([1]; 5-th day after injection): 36.0±8.7 10^3 per spleen
- immunogenic / immunostimulating activity, effect on humoral immune response (in words) [1]: does not exhibit immunogenic activity; also recorded: no immunogenic activity
- DL10 (random breed male mice; [2]): 46 mg/kg;
- DL90 (random breed male mice; [2]): 87 mg/kg
- DL50 (random breed male mice; mice, single i.v. injection in tail vein, p = 0.05): 63 (54.8 ÷ 72.5) mg/kg at p = 0.05;
- therapeutic index (random breed male mice; mouse, in vivo): 10

B1: AFP: Alpha-fetoprotein isolated from human cord blood, more than 99% purity (protein, UniProt P02771 19-609, looked up)
Alpha-fetoprotein: RTLHRNEYGIASILDSYQCTAEISLADLATIFFAQFVQEATYKEVSKMVKDALTAIEKPTGDEQSSGCLENQLPAFLEELCHEKEILEKYGHSDCCSQSEEGRHNCFLAHKKPTPASIPLFQVPEPVTSCEAYEEDRETFMNKFIYEIARRHPFLYAPTILLWAARYDKIIPSCCKAENAVECFQTKAATVTKELRESSLLNQHACAVMKNFGTRTFQAITVTKLSQKFTKVNFTEIQKLVLDVAHVHEHCCRGDVLDCLQDGEKIMSYICSQQDTLSNKITECCKLTTLERGQCIIHAENDEKPEGLSPNLNRFLGDRDFNQFSSGEKNIFLASFVHEYSRRHPQLAVSVILRVAKGYQELLEKCFQTENPLECQDKGEEELQKYIQESQALAKRSCGLFQKLGEYYLQNAFLVAYTKKAPQLTSSELMAITRKMAATAATCCQLSEDKLLACGEGAADIIIGHLCIRHEMTPVNPGVGQCCTSSYANRRPCFSSLVVDETYVPPAFSDDKFIFHKDLCQAQGVALQTMKQEFLINLVKQKPQITEEQLEAVIADFSGLLEKCCQGQEQEVCFAEEGQKLISKTRAALGV
- total AFC amount in comparison with control (in words) ([1]; 5-th day after injection): not significantly changed
- lower relative amount of AFC in comparison with control group ([1]; 5-th day after injection, AFP 0.009 mg per capita i.v.): 30%
- relative amount of AFC ([1]; 5-th day after injection): 255.5±13 per 10^6 cells
- total AFC amount ([1]; 5-th day after injection): 23.6±1.5 10^3 per spleen
- immunogenic / immunostimulating activity, effect on humoral immune response (in words) [1]: reduces or does not significantly effect the immunogenic characteristics of sheep erythrocytes

B2: Rat AFP: Rat alpha-fetoprotein isolated from neonatal rat serum by immunoaffinity (protein, UniProt P02773 25-611, looked up)
Alpha-fetoprotein: RVLHTNEFGIESTLDSSQCPTEKNMFNVATIVVAQFVQDATKAEVNKMSSDALAAMKENTGDGCLENQLSVFLDEICHETELSNKYGFSGCCNQSGVERHQCLLARKKTAPDSVPPFHFPETAESCPAYEENRAMSINTFIYDVSKRNPFLYAPTILYLAAQYDKAVPACCKADNMEECFQTKRASMAKELREGSMLNEHVCAVIRKFGSRNLQAVLIIKLSQKFPKANITEIRKLALDVAHIHEQCCHGNAMECLQDGESVMTHMCSQQEILSSKTAECCKLPTIELGYCIIHAENGDKPEGLTLNPSEFLGDRNFAQFSSEEKLLFMASFLHEYSRNHPNLPVSVILKTAKSYQEILEKCSQSETPSKCQDNMEEELQKHIQESQALAKQSCNLYQKLGPYYLQNLFLIGYTRKAPQLTSAELIDLTGKMVSIASTCCQLSEEKRSACGEGLADIYIGHLCLRHEANPVNSGINHCCSSSYSNRRLCITSFLRDETYVPPPFSEDKFIFHKDLCQAQGRALQTMKQELLINLVKQKPEMTEEQHAAVTADFSGLLEKCCKDQDQEACFAKEGPKLISKTREALGV
- relative amount of AFC ([1]; 5-th day after injection): 428.1±11.5 per 10^6 cells
- total AFC amount ([1]; 5-th day after injection): 60.3±13.5 10^3 per spleen
- immunogenic / immunostimulating activity, effect on humoral immune response (in words) [1]: no immunogenic activity

— patent US6599507B2, “Composition for the treatment of immune deficiencies and methods for its preparation and use” (Ardenia Investments, Ltd., priority 1998, dated 2003)
